The source of these data is patent US20040023984A1, “Compounds for the treatment of alzheimer's disease” (priority 1987, published 2004).

Where “and” joins values, the source holds several entries; their conditions need not be identical. Equal values may be shown once. Read-outs that look alike come from different tables or passages of the source.

The target in data set [1] is T1, acetylcholinesterase (Homo sapiens, UniProt P22303). Put plainly: Inhibition of acetylcholinesterase, procedure of Ellman (acetylthiocholine substrate, photometric). In kind it is biochemical. On the procedure: The anticholinesterase activity of the compounds prepared in the above examples was assayed by an assay for inhibition of acetylcholinesterase following the procedure of G. Ellman, […], 7:88-95 (1961) Acetylthiocholine serves as substrate since it acts like acetylcholine. Acetylcholinesterase cleaves it to thiocholine and acetate which react with dithiobisnitrobenzoate to form a yellow color which is measured photometrically.
T1 sequence (P22303 32-614, species assumed): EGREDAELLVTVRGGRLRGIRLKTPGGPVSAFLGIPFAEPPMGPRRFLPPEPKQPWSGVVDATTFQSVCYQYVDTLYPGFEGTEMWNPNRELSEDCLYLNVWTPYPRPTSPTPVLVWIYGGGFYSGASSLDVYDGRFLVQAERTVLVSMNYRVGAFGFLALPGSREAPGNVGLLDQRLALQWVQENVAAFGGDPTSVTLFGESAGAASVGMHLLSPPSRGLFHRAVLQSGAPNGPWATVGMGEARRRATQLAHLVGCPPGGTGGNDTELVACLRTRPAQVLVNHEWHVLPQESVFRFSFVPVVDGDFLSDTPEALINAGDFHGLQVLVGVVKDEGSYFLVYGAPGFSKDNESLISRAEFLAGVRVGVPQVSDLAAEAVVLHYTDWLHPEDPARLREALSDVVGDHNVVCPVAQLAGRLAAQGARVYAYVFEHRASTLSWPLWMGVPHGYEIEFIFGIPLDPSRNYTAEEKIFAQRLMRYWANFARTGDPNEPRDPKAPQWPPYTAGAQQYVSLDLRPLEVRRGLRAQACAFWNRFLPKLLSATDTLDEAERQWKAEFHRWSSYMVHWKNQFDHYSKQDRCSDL
This assay was carried out at dilution of 10^−5 molar
The compounds were tested in the assay described after Example 5 but at different concentrations. The results obtained were as follows:
Further compounds were prepared by methods analogous to those described above and were tested in a cholinesterase assay as described above.
Background: In Ellman's method for cholinesterases, released thiocholine reacts with DTNB.

Data set [2] concerns the target T1, acetylcholinesterase. Put plainly: Acetylcholinesterase Inhibition Assay (other cholinesterase activity tests, may be less reliable). The settings on record: results may be less reliable. In kind it is biochemical.
Data set [3] deals with nucleas basalis-lesioned animals. In words: Nucleus basalis model, passive avoidance in shuttle box. In kind it is in vivo, mice. The source says:
The following test provides a good animal model for Alzheimer's disease in humans: A selective lesion is placed in a subcortical nucleus (nucleus basalis of Meynert) with a resultant cortical cholinergic deficiency, similar in magnitude to that seen in early to moderate stage Alzheimer's disease. Numerous behavioral deficits, including the inability to learn and retain new information, characterizes this lesion. Drugs that can normalize these abnormalities would have a reasonable expectation of efficacy in Alzheimer's disease. Haroutunian, V, Kanof P, Davis, K L: Pharmacological alleviations of cholinergic-lesion-induced memory defects in rats. Life Sciences, 37:945-952 (1985).
(§1) Galanthamine n-butyl carbamate was tested in the nucleus basalis model for galanthamine discussed in the Hartounian et al paper noted above. In the test, mice were given the drug three and ½ hours before two learning trials in a shuttle box. They are placed in the lighted compartment and receive an electric footshock when they cross into the preferred side, the dark. The next day, they are again placed in the lighted compartment and the time to enter the dark is noted. The latency to enter the dark compartment is the basis for this figure. […] Below 50 mg/kg no side effects were noted.

The subject of a further data set is normal mice. In words: Passive avoidance shuttle box test using normal mice. In kind it is in vivo. On the procedure:
as §1
In a similar test using normal mice, the mice remained in the light (less preferred) side of the shuttle box for over six minutes at the best dose (0.1 mg/kg) as compared to a best dose result of about 90 seconds for the nucleas basalis-lesioned animals.

In data set [4] the test system is mice. In words: Cholinergic side effects in mice at high doses. It is filed as in vivo. On the procedure:
as §1

The test system of data set [5] is cholinesterase. The settings on record: relative to galanthamine; cited from earlier work.
For data set [6], the system named is scopolamine induced memory deficit. In words: Scopolamine dementia dark avoidance test (passive avoidance). The settings on record: for # > CO/n / % > CO / Mean Latency: Table 2, cut-off 41 seconds. In kind it is in vivo, male CFW mice. On the procedure:
Furnished data on the effects of these compound on cholinesterase activity were used to determine doses for testing. […] The two other compounds were tested at 1,3 and 10 mg/kg sc and did antagonize the scopolamine induced deficit.
Training and testing of passive avoidance were conducted in a two-compartment (light/dark) test cage. On the training day, mice were individually placed in the light half of the cage and after entering the dark compartment, were administered a 3 sec 0.4 mA footshock. They were then removed from the test chamber and returned to their home cages. Twenty-four hours later, the animals were again placed in the lighted half of the test cage and the latency to enter the dark compartment was measured.
All animals in each group of 15 naive male CFW mice were injected twice subcutaneously. Thirty minutes prior to training, animals were administered 3 mg/kg scopolamine HBr or its 0.9% NaCl vehicle. Five minutes prior to training, independent groups were administered one of three doses of the test compounds or the distilled water vehicle. One group in each experiment received vehicle twice, another group received scopolamine and the dH2O vehicle; the remaining groups received scopolamine and a test compound.
A cutoff value (CO), defined as the second-longest latency in the scopolamine/vehicle treated group, was used to determine whether a compound was active. If 20% or more of the animals in a treatment group had latencies greater than the CO value, the compound was considered active at that dose.
The three compounds were tested in two separate experiments; the results are presented below in Tables 1 and 2. Doses considered active are marked with an asterisk (*).

Another data set has as its system EEG—recorded activity. The note with it: relative to galanthamine; cited from earlier work.
Data set [7] deals with T1, acetylcholinesterase. Put plainly: biochemical.
The conditions of data set [8]: 3 mg/kg; cited from earlier work.
In data set [9] the test system is respiration and heart activity. The note with it: relative to galanthamine; cited from earlier work.
In data set [10] the test system is cholinesterase. The note with it: Irwin and Smith, Arch. Int. Pharmacodyn. 127:314-330; cited from earlier work.
Data set [11] has as its system mice. Put plainly: Profile of Observable Effects (POE), peripheral cholinergic effects. The settings on record: subcutaneous.
Protocol: A number of compounds were also evaluated in a standardized Profile of Observable Effects (POE) which involves administering drug to animal in increasing amounts and observing this for up to two hours to see whether peripheral cholinergic effects such as tremor, lacrimation, salivation, pilo erection, defection or red eye occur.

A word on the % Inhibition: it is how much of the control response was suppressed. In the case of `CCCCNC(=O)O[C@@H]1C=CC23CCN(C)Cc4ccc(OC)c(c42)O[C@@H]3C1` (stereo partly shown) [galanthamine n-butyl carbamate], on acetylcholinesterase [1] (10^−5 molar), the “inhibition of acetylcholinesterase at concentration 10^−5” value is reported as 75. The “% Inhibition at 10^−6” value at acetylcholinesterase [2] (10^−6) was 37%. Besides, the “% Inhibition at 10^−7” value on acetylcholinesterase [2] (10^−7) turned out to be 9%. The “% Inhibition at −10^−5” value at acetylcholinesterase [2] (−10^−5) came to 44%. Further, the “best dose result, latency to enter the dark compartment” value in data set [3] (nucleas basalis-lesioned animals, best dose) is listed as “about 90 seconds”. The “passive avoidance result compared with galanthamine” value in data set [3] (nucleus basalis model, mice) is “comparable with those obtained with galanthamine”. In addition, the “best dose in passive avoidance test” value was 0.5 mg/kg in data set [3] (nucleus basalis model, mice, drug given three and ½ hours before learning trials); 0.1 mg/kg in the data set with normal mice. In addition, the “time mice remained in the light side of the shuttle box” value in the data set on normal mice (best dose (0.1 mg/kg)) is reported as “over six”. For the same molecule, in the data set on mice [4] (mice), the “dose below which no side effects were noted” value was “Below 50 mg/kg”. In the data set on mice [4] (two mice given 100 mg/kg), the “side effects and lethality” value is reported as “showed cholinergic side effects but neither died”.
Regarding `COc1ccc2c3c1O[C@H]1C[C@H](O)C=C[C@@]31CCN(C)C2` [epigalanthamine], in the data set with cholinesterase [5], the “anti-cholinesterase activity as % of that of galanthamine” value is 10%.
By inhibition is commonly meant the share of the control response that was lost under treatment. `COc1ccc2c3c1OC1CC(O)CC[C@@]31CCN(C)C2` (stereo partly shown) [lycoramine]: the inhibition at 10 µM on acetylcholinesterase [1] (10^−5 M, further compounds, read-out: cholinesterase inhibition at 10^−5 M) was 30%. Also, the “antagonism of scopolamine induced memory deficit” value in [6] (10 mg/kg sc) is listed as “active”. The “# > CO/n” value in [6] (scopolamine + 1 mg/kg sc) is recorded as 1/15; in [6] (scopolamine + 3 mg/kg sc), 0/15; in data set [6] (scopolamine + 10 mg/kg sc), 4/15. In addition, the “% > CO” value in [6] (scopolamine + 1 mg/kg sc) is reported as 7%; in [6] (scopolamine + 3 mg/kg sc, * = dose considered active), 0%; in data set [6] (scopolamine + 10 mg/kg sc, * = dose considered active), 27* %. The “Mean Latency” value in data set [6] (scopolamine + 1 mg/kg sc) was 26 s; in data set [6] (scopolamine + 3 mg/kg sc) it was 19 s; in data set [6] (scopolamine + 10 mg/kg sc), 48 s. Moreover, the “concentration required to stimulate EEG-recorded activity, times that required for galanthamine” value in the data set with EEG—recorded activity is “about five”.
Broadly, the IC50 is the midpoint of a concentration-inhibition curve. Consider `COC1C=C[C@@]23CCN(C)Cc4ccc(O)c(c42)OC3C1` (stereo partly shown) [childanthine], for which the half-inhibitory concentration (IC50) on acetylcholinesterase [7] (read-out: IC50, acetyl cholinesterase inhibition) is 310 nM and 80 nM.
With `COc1ccc2c3c1OC1CC(=O)C=C[C@@]31CCN(C)C2` (stereo partly shown) [Narwedine, narwedine], the “anti-cholinesterase activity as % of that of galanthamine” value in the data set with cholinesterase [5] is “less than 1%”. Moreover, the anticurare activity result in data set [8] is recorded as “weak”. Also, the “cholinergic effects on respiration and heart activity, lower than galanthamine” value in [9] is reported as 50-80%.
Consider `COc1ccc2c3c1OC1CC(OC(C)=O)CCC31CC[N+](C)(C)C2.[I-]` (stereo not shown) [lycoramine acetate methiodide], for which the cholinesterase activity entry in the data set on cholinesterase [10] is “ineffective”.
Turning to `CNC(=O)Oc1ccc2c3c1OC1CC(O)C=CC31CCN(C)C2` (stereo not shown) [O-demethyl-galanthamine-13-methyl carbamate], the IC50 at acetylcholinesterase [7] (IC50, acetyl cholinesterase inhibition, S 0.3 mM) stood at 2 nM; against acetylcholinesterase [7] (IC50, acetyl cholinesterase inhibition, S 5 mM), 2 nM. Also, the “POE, mice showing peripheral cholinergic effects” value is recorded as “not noted in any of four mice” with mice [11] (0.31 mg/kg), “noticeable in one mouse out of four” in the data set on mice [11] (0.63 mg/kg) and “in all four mice” with mice [11] (1 mg/kg).
